From ChEMBL document CHEMBL5137124, “Mutasynthesis Generates Antibacterial Benzothiophenic-Containing Nosiheptide Analogues” (2022)
Converted amounts (≈) assume the structure as drawn.

Assays:
Type in all cases: functional
Enterococcus faecium [1] = experiment: Antibacterial activity against gram positive vancomycin-sensitive Enterococcus faecium CICC 20419 assessed as inhibition of bacterial growth incubated for 20 hrs by microtiter plate method
Staphylococcus aureus [2] = experiment: Antibacterial activity against gram positive methicillin-sensitive Staphylococcus aureus ATCC 25923 assessed as inhibition of bacterial growth incubated for 20 hrs by microtiter plate method
Staphylococcus aureus [3] = experiment: Antibacterial activity against gram positive methicillin-sensitive Staphylococcus aureus ATCC 6538 assessed as inhibition of bacterial growth incubated for 20 hrs by microtiter plate method
Enterococcus faecium [4] = experiment: Antibacterial activity against gram positive vancomycin-sensitive Enterococcus faecium CICC 6049 assessed as inhibition of bacterial growth incubated for 20 hrs by microtiter plate method
Staphylococcus aureus [5] = experiment: Antibacterial activity against gram positive methicillin-resistant Staphylococcus aureus HCCB 20251 assessed as inhibition of bacterial growth incubated for 20 hrs by microtiter plate method
Enterococcus faecium [6] = experiment: Antibacterial activity against gram positive vancomycin-resistant Enterococcus faecium ATCC 51559 assessed as inhibition of bacterial growth incubated for 20 hrs by microtiter plate method
Staphylococcus aureus [7] = experiment: Antibacterial activity against gram positive methicillin-resistant Staphylococcus aureus ATCC 43300 assessed as inhibition of bacterial growth incubated for 20 hrs by microtiter plate method
Staphylococcus aureus [8] = experiment: Antibacterial activity against gram positive methicillin-resistant Staphylococcus aureus HCCB 20252 assessed as inhibition of bacterial growth incubated for 20 hrs by microtiter plate method

Row | Structure (SMILES) | MIC (Enterococcus faecium [1]) [µg/mL] | MIC (Staphylococcus aureus [2]) [µg/mL] | MIC (Staphylococcus aureus [3]) [ng/mL] | MIC (Enterococcus faecium [4]) [µg/mL] | MIC (Staphylococcus aureus [5]) [µg/mL] | MIC (Enterococcus faecium [6]) [µg/mL] | MIC (Staphylococcus aureus [7]) [ng/mL] | MIC (Staphylococcus aureus [8]) [ng/mL]
1 | C=C(NC(=O)c1csc(-c2nc3c(cc2O)-c2nc(cs2)C(=O)N[C@@H]([C@@H](C)O)C(=O)N/C(=C\C)c2nc(cs2)C(=O)N[C@H]2C[C@H](O)C(=O)OCc4cccc5[nH]c(c(C)c45)C(=O)SC[C@H](NC(=O)c4csc2n4)c2nc-3cs2)n1)C(N)=O | 0.032 (≈ 0.0262 µM) | 0.008 (≈ 0.00654 µM) | 2 (≈ 0.00164 µM) | 0.016 (≈ 0.0131 µM) | 0.008 (≈ 0.00654 µM) | ≤ 0.008 | 8 (≈ 0.00654 µM) | 8 (≈ 0.00654 µM)
2 | C=C(NC(=O)C(=C)NC(=O)c1csc(-c2ccc3c(n2)-c2csc(n2)[C@@H]2CSC(=O)c4sc5cccc(c5c4C)COC(=O)CC[C@H](NC(=O)c4csc(n4)/C(=C/C)NC(=O)[C@H]([C@@H](C)O)NC(=O)c4csc-3n4)c3nc(cs3)C(=O)N2)n1)C(=O)O | 1.02 (≈ 0.802 µM) | 0.032 (≈ 0.025 µM) | 16 (≈ 0.0125 µM) | 1.02 (≈ 0.802 µM) | 0.064 (≈ 0.0501 µM) | 0.512 (≈ 0.401 µM) | 32 (≈ 0.025 µM) | 32 (≈ 0.025 µM)
3 | C=C(NC(=O)c1csc(-c2nc3c(cc2O)-c2nc(cs2)C(=O)N[C@@H]([C@@H](C)O)C(=O)N/C(=C\C)c2nc(cs2)C(=O)N[C@H]2CCC(=O)OCc4cccc5sc(c(C)c45)C(=O)SC[C@H](NC(=O)c4csc2n4)c2nc-3cs2)n1)C(N)=O | 0.064 (≈ 0.0523 µM) | 0.032 (≈ 0.0262 µM) | 4 (≈ 0.00327 µM) | 0.064 (≈ 0.0523 µM) | 0.016 (≈ 0.0131 µM) | 0.032 (≈ 0.0262 µM) | 8 (≈ 0.00654 µM) | 8 (≈ 0.00654 µM)
4 | C=C(NC(=O)C(=C)NC(=O)c1csc(-c2ccc3c(n2)-c2csc(n2)[C@@H]2CSC(=O)c4[nH]c5cccc(c5c4C)COC(=O)CC[C@H](NC(=O)c4csc(n4)/C(=C/C)NC(=O)[C@H]([C@@H](C)O)NC(=O)c4csc-3n4)c3nc(cs3)C(=O)N2)n1)C(=O)O | 1.02 (≈ 0.812 µM) | 0.016 (≈ 0.0127 µM) | 16 (≈ 0.0127 µM) | > 1.02 | 0.064 (≈ 0.0508 µM) | 0.512 (≈ 0.406 µM) | 32 (≈ 0.0254 µM) | 64 (≈ 0.0508 µM)
5 | C=C(NC(=O)c1csc(-c2nc3c(cc2O)-c2nc(cs2)C(=O)N[C@@H]([C@@H](C)O)C(=O)N/C(=C\C)c2nc(cs2)C(=O)N[C@H]2C[C@H](O)C(=O)OCc4cccc5sc(c(C)c45)C(=O)SC[C@H](NC(=O)c4csc2n4)c2nc-3cs2)n1)C(N)=O | 0.064 (≈ 0.0516 µM) | 0.008 (≈ 0.00645 µM) | 4 (≈ 0.00323 µM) | 0.064 (≈ 0.0516 µM) | 0.016 (≈ 0.0129 µM) | 0.016 (≈ 0.0129 µM) | 8 (≈ 0.00645 µM) | 8 (≈ 0.00645 µM)
6 | CN[C@H](CC(C)C)C(=O)N[C@H]1C(=O)N[C@@H](CC(N)=O)C(=O)N[C@H]2C(=O)N[C@H]3C(=O)N[C@H](C(=O)N[C@H](C(=O)O)c4cc(O)cc(O)c4-c4cc3ccc4O)[C@H](O)c3ccc(c(Cl)c3)Oc3cc2cc(c3O[C@@H]2O[C@H](CO)[C@@H](O)[C@H](O)[C@H]2O[C@H]2C[C@](C)(N)[C@H](O)[C@H](C)O2)Oc2ccc(cc2Cl)[C@H]1O [VANCOMYCIN] | – | – | – | – | – | > 128 | – | –
